# Source: patent publication US8697739B2, “Bicyclic acetyl-CoA carboxylase inhibitors and uses thereof” (Novartis AG, priority 2010, dated 2014)
# Target: T1, human acetyl-CoA carboxylase 2 (ACC2) (Homo sapiens, UniProt O00763)
# T1 construct: The cDNA encoding amino acids 144 to 2458 of human acetyl-CoA carboxylase 2; made in house; host or cells: Sf9 insect cells (baculovirus, pFastBac1)
# Experiment: Acetyl-CoA carboxylase enzyme assay (malonyl-CoA formation by LC/MS/MS)
# Type: biochemical
# Conditions: recombinant human ACC2 (aa 144-2458); read-out: IC50 ACC2
# How it was run: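 Malonyl-CoA formation was read by LC/MS/MS MRM against a [13C3]-malonyl-CoA internal standard, after acetic acid quench. The enzyme was baculovirus/Sf9-expressed human ACC2 residues 144–2458, given 15 minutes room-temperature compound preincubation in HEPES pH 7.5 buffer with MgCl2, citrate and DTT. Substrate solution held 50 μM acetyl-CoA, 120 μM ATP and 2 mM KHCO3.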
# T1 sequence (O00763 144-2458): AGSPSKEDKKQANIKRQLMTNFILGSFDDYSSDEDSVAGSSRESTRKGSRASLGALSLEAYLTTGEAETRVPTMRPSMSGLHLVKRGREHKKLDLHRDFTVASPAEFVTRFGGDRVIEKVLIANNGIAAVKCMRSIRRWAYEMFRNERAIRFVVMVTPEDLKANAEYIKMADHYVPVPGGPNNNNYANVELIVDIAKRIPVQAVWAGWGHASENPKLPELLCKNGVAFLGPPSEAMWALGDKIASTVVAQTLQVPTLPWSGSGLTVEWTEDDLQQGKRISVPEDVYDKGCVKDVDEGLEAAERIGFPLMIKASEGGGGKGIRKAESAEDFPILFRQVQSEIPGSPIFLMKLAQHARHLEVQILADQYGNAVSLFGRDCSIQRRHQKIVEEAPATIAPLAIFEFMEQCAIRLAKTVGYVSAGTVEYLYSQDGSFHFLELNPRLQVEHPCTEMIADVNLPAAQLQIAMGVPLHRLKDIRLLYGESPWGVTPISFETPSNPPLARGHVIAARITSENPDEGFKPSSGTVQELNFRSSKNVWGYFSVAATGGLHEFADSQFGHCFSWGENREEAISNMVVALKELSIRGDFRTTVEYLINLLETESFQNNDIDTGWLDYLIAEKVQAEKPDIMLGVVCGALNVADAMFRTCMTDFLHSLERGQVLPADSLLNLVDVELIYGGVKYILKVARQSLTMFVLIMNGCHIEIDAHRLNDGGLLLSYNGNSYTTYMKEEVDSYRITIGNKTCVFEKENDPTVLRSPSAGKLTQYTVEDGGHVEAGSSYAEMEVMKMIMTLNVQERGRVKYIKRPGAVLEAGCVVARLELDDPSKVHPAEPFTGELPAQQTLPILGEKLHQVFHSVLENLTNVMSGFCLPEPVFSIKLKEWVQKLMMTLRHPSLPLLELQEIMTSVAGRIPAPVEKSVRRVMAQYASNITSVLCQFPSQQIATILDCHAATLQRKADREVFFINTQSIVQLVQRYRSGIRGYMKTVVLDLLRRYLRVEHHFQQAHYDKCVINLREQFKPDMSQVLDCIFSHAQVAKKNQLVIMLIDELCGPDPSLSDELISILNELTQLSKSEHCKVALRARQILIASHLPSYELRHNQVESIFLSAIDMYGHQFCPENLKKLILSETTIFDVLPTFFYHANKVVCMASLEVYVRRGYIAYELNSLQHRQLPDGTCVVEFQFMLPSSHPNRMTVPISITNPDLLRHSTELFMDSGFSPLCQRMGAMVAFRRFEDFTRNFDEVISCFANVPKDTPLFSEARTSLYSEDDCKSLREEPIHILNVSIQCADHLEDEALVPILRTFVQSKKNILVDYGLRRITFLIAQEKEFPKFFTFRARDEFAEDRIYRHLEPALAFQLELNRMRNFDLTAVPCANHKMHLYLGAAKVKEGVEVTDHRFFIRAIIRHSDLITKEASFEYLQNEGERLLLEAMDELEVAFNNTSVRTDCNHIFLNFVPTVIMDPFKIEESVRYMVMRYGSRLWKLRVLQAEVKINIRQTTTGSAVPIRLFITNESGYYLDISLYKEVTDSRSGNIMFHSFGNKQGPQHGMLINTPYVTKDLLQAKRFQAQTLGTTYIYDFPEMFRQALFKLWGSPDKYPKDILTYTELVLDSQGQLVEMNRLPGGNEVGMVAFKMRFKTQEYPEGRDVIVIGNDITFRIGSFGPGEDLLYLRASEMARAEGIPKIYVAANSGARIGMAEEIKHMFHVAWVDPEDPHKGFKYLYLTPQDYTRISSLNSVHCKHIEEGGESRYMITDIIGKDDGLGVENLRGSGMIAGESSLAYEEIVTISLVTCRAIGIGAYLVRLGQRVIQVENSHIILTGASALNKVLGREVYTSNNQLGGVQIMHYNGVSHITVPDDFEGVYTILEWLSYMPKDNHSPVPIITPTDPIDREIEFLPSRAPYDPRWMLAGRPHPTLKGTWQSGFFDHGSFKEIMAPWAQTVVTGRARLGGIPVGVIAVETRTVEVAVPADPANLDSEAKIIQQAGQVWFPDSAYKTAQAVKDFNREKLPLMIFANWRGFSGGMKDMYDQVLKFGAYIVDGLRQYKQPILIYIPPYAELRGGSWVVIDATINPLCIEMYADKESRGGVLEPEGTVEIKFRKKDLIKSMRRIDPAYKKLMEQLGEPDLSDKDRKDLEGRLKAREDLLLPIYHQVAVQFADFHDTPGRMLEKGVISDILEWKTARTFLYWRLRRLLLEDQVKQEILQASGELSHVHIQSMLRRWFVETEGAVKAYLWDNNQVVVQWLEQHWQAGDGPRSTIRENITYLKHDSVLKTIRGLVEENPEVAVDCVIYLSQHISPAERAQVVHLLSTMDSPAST
row,SMILES,IC50 [nM]
1,"C[C@H]1COCCN1C(=O)[C@H]1CC[C@H](NS(=O)(=O)c2ccc3c(Cl)c(-c4ccc(CCC(=O)O)cc4)n(C)c3c2)CC1 [Example 428, 3-(4-(3-chloro-1-methyl-6-(N-((1S,4r)-4-((S)-3-methylmorpholine-4-carbonyl)cyclohexyl)sulfamoyl)-1H-indol-2-yl)phenyl)propanoic acid]",< 10
2,"Cc1c(C2CC2)n(C)c2cc(S(=O)(=O)N[C@H]3CC[C@H](C(=O)N4CCOC[C@@H]4C)CC3)ccc12 [Example 32, 2-cyclopropyl-1,3-dimethyl-N-((1S,4r)-4-((S)-3-methylmorpholine-4-carbonyl)cyclohexyl)-1H-indole-6-sulfonamide]",245
3,"O=C(C1CCC(NS(=O)(=O)c2ccc3cc(-c4ccccc4C(F)(F)F)[nH]c3c2)CC1)N1CCNC(C(F)(F)F)C1 (stereo not drawn) [Example 334, 2-(2-(trifluoromethyl)phenyl)-N-((1r,4r)-4-(3-(trifluoromethyl)piperazine-1-carbonyl)cyclohexyl)-1H-indole-6-sulfonamide]",1420
4,"CC(=O)c1ccc(Nc2nc3cc(S(=O)(=O)Nc4ccc(C(=O)OC(C)C)cc4)ccc3[nH]2)cc1 [Example 548, isopropyl 4-(2-(4-acetylphenylamino)-1H-benzo[d]imidazole-5-sulfonamido)benzoate]",75
5,"CC(C)OC(=O)c1ccc(NS(=O)(=O)c2ccc3[nH]c(Nc4ccc(Cl)c(S(N)(=O)=O)c4)nc3c2)cc1 [Example 544, isopropyl 4-(2-(4-chloro-3-sulfamoylphenylamino)-1H-benzo[d]imidazole-5-sulfonamido)benzoate]",35
6,"Cc1nc2ccc(S(=O)(=O)N[C@H]3CC[C@H](C(=O)N[C@H](C)c4ccc(F)cc4)CC3)cc2s1 [Example 660, (1r,4R)-N-((R)-1-(4-fluorophenyl)ethyl)-4-(2-methylbenzo[d]thiazole-6-sulfonamido)cyclohexanecarboxamide]",242
7,"COCCOc1ccc(-c2cc3ccc(S(=O)(=O)N[C@H]4CC[C@H](C(=O)N5CCOC[C@@H]5C)CC4)cc3n2C)cc1 [Example 448, 2-(4-(2-methoxyethoxy)phenyl)-1-methyl-N-((1S,4r)-4-((S)-3-methylmorpholine-4-carbonyl)cyclohexyl)-1H-indole-6-sulfonamide]",65
8,"O=C([C@H]1CC[C@H](NS(=O)(=O)c2ccc3cc(-c4ccc(F)cc4)[nH]c3c2)CC1)N1CCNC(C(F)(F)F)C1 (stereo partly drawn) [Example 348, 2-(4-fluorophenyl)-N-((1r,4r)-4-(3-(trifluoromethyl)piperazine-1-carbonyl)cydohexyl)-1H-indole-6-sulfonamide]",45
9,"O=C([C@H]1CC[C@H](NS(=O)(=O)c2cnc3ccccc3c2)CC1)N1CCCCC1c1ccccc1 (stereo partly drawn) [Example 59, N-((1r,4r)-4-(2-phenylpiperidine-1-carbonyl)cyclohexyl)quinoline-3-sulfonamide]",339
10,CCOC(=O)CCc1cn(C)c2ccc(S(=O)(=O)N[C@H]3CC[C@H](C(=O)N[C@H](C)c4ccc(F)cc4)CC3)cc12 [Example 487],91
11,"C[C@@H](NC(=O)[C@H]1CC[C@H](NS(=O)(=O)c2ccc3c(c2)CCC3)CC1)c1ccc(F)cc1 [Example 119, (1r,4R)-4-(2,3-dihydro-1H-indene-5-sulfonamido)-N-((R)-1-(4-fluorophenyl)ethyl)cyclohexanecarboxamide]",161
12,"C[C@@H](NC(=O)[C@H]1CC[C@H](NS(=O)(=O)c2ccc3nc(N4CCOCC4)ccc3c2)CC1)c1ccc(F)cc1 [Example 213, (1r,4R)-N-((R)-1-(4-fluorophenyl)ethyl)-4-(2-morpholinoquinoline-6-sulfonamido)cyclohexanecarboxamide]",95
13,"C[C@@H](NC(=O)[C@H]1CC[C@H](NS(=O)(=O)c2ccc3[nH]c(-c4cccc(C(=O)O)c4)nc3c2)CC1)c1ccccc1 [Example 279, 3-(5-(N-((1R,4r)-4-((R)-1-phenylethylcarbamoyl)cyclohexyl)sulfamoyl)-1H-benzo[d]imidazol-2-yl)benzoic acid]",100
14,"O=C([C@H]1CC[C@H](NS(=O)(=O)c2cnc3c(c2)NCCN3)CC1)N1CCNC[C@@H]1c1ccccc1 [Example 191, N-((1S,4r)-4-((S)-2-phenylpiperazine-1-carbonyl)cyclohexyl)-1,2,3,4-tetrahydropyrido[3,2-b]pyrazine-7-sulfonamide]",150
15,"CC(C)OC(=O)c1ccc(NS(=O)(=O)c2ccc3[nH]c(Nc4ccc(F)c(Cl)c4)nc3c2)cc1 [Example 542, isopropyl 4-(2-(3-chloro-4-fluorophenylamino)-1H-benzo[d]imidazole-5-sulfonamido)benzoate]",575
16,"C[C@@H](NC(=O)[C@H]1CC[C@H](NS(=O)(=O)c2ccc3c(Cl)c[nH]c3c2)CC1)c1ccc(F)cc1 [Example 26, (1r,4R)-4-(3-chloro-1H-indole-6-sulfonamido)-N—((R)-1-(4-fluorophenyl)ethyl)cyclohexanecarboxamide]",20
17,"COCc1nnc(-c2ccc(NS(=O)(=O)c3ccc4nc(-c5ccccc5)[nH]c4c3)cc2)o1 [Example 520, N-(4-(5-(methoxymethyl)-1,3,4-oxadiazol-2-yl)phenyl)-2-phenyl-1H-benzo[d]imidazole-6-sulfonamide]",9350
18,"C[C@@H](NC(=O)[C@H]1CC[C@H](NS(=O)(=O)c2ccc3c(c2)CCC(=O)N3)CC1)c1ccc(F)cc1 [Example 110, (1r,4R)-N-((R)-1-(4-fluorophenyl)ethyl)-4-(2-oxo-1,2,3,4-tetrahydroquinoline-6-sulfonamido)cyclohexanecarboxamide]",290
19,"C[C@@H](NC(=O)C1CCC(NS(=O)(=O)c2ccc3[nH]c(-c4ccccc4)nc3c2)CC1)c1ccccc1 (stereo partly drawn) [Example 580, (1r,4S)-4-(2-phenyl-1H-benzo[d]imidazole-5-sulfonamido)-N-((S)-1-phenylethyl)cyclohexanecarboxamide]",1740
20,"CC(C)(C)c1nnc([C@H]2CC[C@H](NS(=O)(=O)c3ccc4[nH]c(-c5ccc(F)cc5)nc4c3)CC2)o1 [Example 607, N-((1r,4r)-4-(5-tert-butyl-1,3,4-oxadiazol-2-yl)cyclohexyl)-2-(4-fluorophenyl)-1H-benzo[d]imidazole-5-sulfonamide]",1090
21,"C[C@@H]1CN(C(=O)[C@H]2CC[C@H](NS(=O)(=O)c3ccc4cc(-c5ccccc5)[nH]c4c3)CC2)C[C@H](C)O1 [Example 475, N-((1R,4r)-4-((2S,6R)-2,6-dimethylmorpholine-4-carbonyl)cyclohexyl)-2-phenyl-1H-indole-6-sulfonamide]",15
22,"O=C(Nc1ccccc1)c1ccc(NS(=O)(=O)c2ccc3[nH]c(-c4ccccc4)nc3c2)cc1 [Example 490, N-phenyl-4-(2-phenyl-1H-benzo[d]imidazole-5-sulfonamido)benzamide]",> 139000
23,"Cc1ccccc1-c1cc2ccc(S(=O)(=O)N[C@H]3CC[C@H](C(=O)N4CCOC[C@@H]4C4CC4)CC3)cc2[nH]1 [Example 481, N-((1S,4r)-4-((S)-3-cyclopropylmorpholine-4-carbonyl)cyclohexyl)-2-o-tolyl-1H-indole-6-sulfonamide]",20
24,"Cc1ccccc1-c1cc2ccc(S(=O)(=O)N[C@H]3CC[C@H](C(=O)N[C@H](C)c4ccc(F)cc4)CC3)cc2[nH]1 [Example 292, (1r,4R)-N-((R)-1-(4-fluorophenyl)ethyl)-4-(2-o-tolyl-1H-indole-6-sulfonamido)cyclohexanecarboxamide]",12
